Results as given in patent publication US20180064110A1, “COMBINATIONS OF FUNGICIDALLY ACTIVE YEAST AND FUNGICIDES” (Bayer CropScience AG, priority 2009, published 2018).

System: green peach aphid (Myzus persicae)
Experiment: Myzus test (spray treatment) on Chinese cabbage leaf disks
Assay type: in vivo
Conditions: foliar, 144 h, read-out: Mortality in % After 6 Days
Protocol: A suitable preparation of active ingredient was prepared by mixing one part by weight of active ingredient with the stated amounts of solvent and emulsifier and diluting the concentrate with emulsifier-containing water to the desired concentration as described below. A suitable suspension of biological agent was prepared by dissolving the cells, spores or viruses in emulsifier-containing water at the desired concentration.
Chinese cabbage (Brassica pekinensis) leaf disks infested by all stages of the green peach aphid (Myzus persicae) were sprayed with an active ingredient and/or biological agent preparation in the desired concentration.
After the desired time, the effect in % was ascertained. Here, 100% means that all of the aphids had been killed; 0% means that no aphids had been killed. The mortality figures determined are used for calculation according to the Colby formula (cf. Colby, S. R., “Calculating Synergistic and Antagonistic Responses of Herbicide Combinations”, Weeds 1967, 15, 20-22).

O=C(NCCc1ncc(C(F)(F)F)cc1Cl)c1ccccc1C(F)(F)F [Fluopyram, fluopyram]
mortality at 500 g/ha (500 g ai/ha): 0% | mortality at 1000 g/ha (1000 g ai/ha): 0%
